Measurements published in ChEMBL document CHEMBL1201862, “PubChem BioAssay data set” (2004).
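Dose response: 5 concentrations. Exposure: 48 h. Format: 96-well plates. Endpoint: linear interpolation; highest concentration if not reached. At the GI50, growth is halved.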 Activity calls are given as the source filed them. Cut-off read from the data, not from the text of the source: active = GI50 up to about 1.1 µM and inactive = higher.

How the values were obtained:
Assay in all cases: DTP human tumour cell line panel, 48 h
[1] = test system: HOP-92
[2] = test system: SK-MEL-28
[3] = test system: NCI-H460
[4] = test system: SF-539
[5] = test system: TK-10
[6] = test system: SF-295
[7] = test system: MCF7
[8] = test system: UACC-62
[9] = test system: MDA-N
[10] = test system: CAKI-1
[11] = test system: K562
[12] = test system: IGROV-1
[13] = test system: A498
[14] = test system: ACHN
[15] = test system: OVCAR-5
[16] = test system: OVCAR-3
[17] = test system: SK-OV-3
[18] = test system: SK-MEL-5
[19] = test system: SNB-75
[20] = test system: SW-620

Row | Compound | GI50 [1] | GI50 [2] | GI50 [3] | GI50 [4] | GI50 [5] | GI50 [6] | GI50 [7] | GI50 [8] | GI50 [9] | GI50 [10] | GI50 [11] | GI50 [12] | GI50 [13] | GI50 [14] | GI50 [15] | GI50 [16] | GI50 [17] | GI50 [18] | GI50 [19] | GI50 [20]
1 | C=CCc1ccccc1CC1(OCC)OC(=O)c2ccccc21 (stereo not given) | 33.8 µM (inactive) | > 100 µM (inactive) | 77.6 µM (inactive) | > 100 µM (inactive) | > 100 µM (inactive) | > 100 µM (inactive) | > 100 µM (inactive) | > 100 µM (inactive) | 31.3 µM (inactive) | > 100 µM (inactive) | 51.8 µM (inactive) | > 100 µM (inactive) | > 100 µM (inactive) | > 100 µM (inactive) | > 100 µM (inactive) | 41.2 µM (inactive) | > 100 µM (inactive) | 39.9 µM (inactive) | 0.0259 µM (active) | > 100 µM (inactive)
2 | COc1cccc(C2CC(C)(N3CCCC3)Oc3cc4c(cc32)OCO4)c1O (stereo not given) | 31.3 µM (inactive) | 22.5 µM (inactive) | 28.2 µM (inactive) | 19.4 µM (inactive) | 37.3 µM (inactive) | 22.1 µM (inactive) | 39.1 µM (inactive) | 22.1 µM (inactive) | 2.54 µM (inactive) | 31.7 µM (inactive) | 9.31 µM (inactive) | 26.2 µM (inactive) | 28.3 µM (inactive) | 36.7 µM (inactive) | 29.7 µM (inactive) | 20 µM (inactive) | 29.6 µM (inactive) | 12.4 µM (inactive) | 15.5 µM (inactive) | 25.8 µM (inactive)
3 | CCN(CC)CCCNc1nncc2cc3c([nH]c4ccc(OC)cc43)c(C)c12 | 10.1 µM (inactive) | 15.7 µM (inactive) | 3.63 µM (inactive) | 3.44 µM (inactive) | 15.3 µM (inactive) | 12.6 µM (inactive) | 2.56 µM (inactive) | 17.4 µM (inactive) | 10.4 µM (inactive) | 11.5 µM (inactive) | 3.34 µM (inactive) | 4.14 µM (inactive) | 16.4 µM (inactive) | 8.26 µM (inactive) | 11.5 µM (inactive) | 7.05 µM (inactive) | 9.64 µM (inactive) | 14.7 µM (inactive) | 9.59 µM (inactive) | 4.61 µM (inactive)
4 | NC(=S)NS(=O)(=O)c1ccc(F)cc1F | > 100 µM (inactive) | > 100 µM (inactive) | > 100 µM (inactive) | > 100 µM (inactive) | > 100 µM (inactive) | > 100 µM (inactive) | > 100 µM (inactive) | > 100 µM (inactive) | > 100 µM (inactive) | > 100 µM (inactive) | > 100 µM (inactive) | > 100 µM (inactive) | > 100 µM (inactive) | > 100 µM (inactive) | > 100 µM (inactive) | > 100 µM (inactive) | > 100 µM (inactive) | > 100 µM (inactive) | > 100 µM (inactive) | > 100 µM (inactive)
5 | CCCCCCCCCCCCCC(=O)NO | 15.8 µM (inactive) | 31.6 µM (inactive) | 11.8 µM (inactive) | 14.1 µM (inactive) | 19.9 µM (inactive) | 21.4 µM (inactive) | 3.8 µM (inactive) | 6.68 µM (inactive) | 25.7 µM (inactive) | 17.3 µM (inactive) | 3.03 µM (inactive) | 17.4 µM (inactive) | 23.5 µM (inactive) | 14.9 µM (inactive) | 17.6 µM (inactive) | 10.1 µM (inactive) | 30.5 µM (inactive) | 9.64 µM (inactive) | 11.4 µM (inactive) | 16.3 µM (inactive)
6 | CC(C)/C(Cl)=N/OC(=O)Nc1ccc(Br)cc1 | 1.77 µM (inactive) | 3.76 µM (inactive) | 15 µM (inactive) | 13.2 µM (inactive) | 13.2 µM (inactive) | 15.2 µM (inactive) | 7.66 µM (inactive) | 3.82 µM (inactive) | 4.83 µM (inactive) | 1.73 µM (inactive) | 1.23 µM (inactive) | 13 µM (inactive) | 18.4 µM (inactive) | 1.74 µM (inactive) | 14.6 µM (inactive) | 4.89 µM (inactive) | 16.7 µM (inactive) | 12.9 µM (inactive) | 18.6 µM (inactive) | 2.2 µM (inactive)
7 | CC(=O)Oc1ccc(/C=C/C(=O)NCCOC(=O)/C=C/c2ccc(OC(C)=O)c(OC(C)=O)c2)cc1OC(C)=O | 28.2 µM (inactive) | 34.4 µM (inactive) | 32 µM (inactive) | 35.7 µM (inactive) | 23 µM (inactive) | 23.7 µM (inactive) | 29.5 µM (inactive) | 18.7 µM (inactive) | 22.5 µM (inactive) | 32.8 µM (inactive) | 32.4 µM (inactive) | 33 µM (inactive) | 31.7 µM (inactive) | 26.2 µM (inactive) | 23.8 µM (inactive) | 16.1 µM (inactive) | 42 µM (inactive) | 17.6 µM (inactive) | 20.1 µM (inactive) | 19.3 µM (inactive)
8 | CC(=O)OCC1OC(N2C(=O)CC(N)=Nc3ccccc32)C(OC(C)=O)C(OC(C)=O)C1OC(C)=O (stereo not given) | > 100 µM (inactive) | 38.4 µM (inactive) | 55.5 µM (inactive) | 23.2 µM (inactive) | 75 µM (inactive) | 74 µM (inactive) | 29.4 µM (inactive) | 34.6 µM (inactive) | 32.7 µM (inactive) | > 100 µM (inactive) | 32.6 µM (inactive) | 45.1 µM (inactive) | 62.8 µM (inactive) | 66.5 µM (inactive) | > 100 µM (inactive) | 52.6 µM (inactive) | > 100 µM (inactive) | 17 µM (inactive) | 29.8 µM (inactive) | 87.5 µM (inactive)
9 | CCCCCCCCCCCCCC(=O)O[C@H]1CC[C@H](NC(=O)[C@H](OC)[C@H](O)[C@@H](O)[C@H](O)/C=C/C(C)C)C(=O)NC1 [BENGAMIDE A] | 0.0204 µM (active) | < 0.0103 µM (active) | 0.00512 µM (active) | 0.0197 µM (active) | 0.0726 µM (active) | 0.0927 µM (active) | 0.0392 µM (active) | 0.00512 µM (active) | 0.0598 µM (active) | 0.292 µM (active) | 0.00512 µM (active) | 0.00708 µM (active) | 0.0389 µM (active) | 0.0592 µM (active) | 38.1 µM (inactive) | 0.0147 µM (active) | 0.149 µM (active) | 0.0105 µM (active) | 0.0353 µM (active) | 0.00512 µM (active)
10 | COc1ccc(/C=N/N=C(\N)NO)c(O)c1 | > 10 µM (inactive) | > 10 µM (inactive) | 4.91 µM (inactive) | > 10 µM (inactive) | > 10 µM (inactive) | > 10 µM (inactive) | 4.34 µM (inactive) | 4.53 µM (inactive) | > 10 µM (inactive) | 4.11 µM (inactive) | 4.41 µM (inactive) | 8.77 µM (inactive) | 8.77 µM (inactive) | 5.96 µM (inactive) | > 10 µM (inactive) | 5.51 µM (inactive) | 7.38 µM (inactive) | 3.53 µM (inactive) | 0.0678 µM (active) | > 10 µM (inactive)
